According to patent US9409866B2, “Pyridine-2-amides useful as CB2 agonists” (Hoffmann-La Roche Inc., priority 2012, dated 2016):
Where two headings read alike, the source gives them in different places.

Key:
human CB2 receptors = human CB2 receptors (Homo sapiens (Human), UniProt P34972); experiment: functional cAMP assay, CHO cells expressing human CB2; type: cell-based
Procedure, shortened: (§1)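 Compound exposure lasted 30 min at 30 °C in IBMX (1 mM)-containing Krebs Ringer bicarbonate buffer, applied to human CB1- or CB2-expressing CHO cells. Lysates were read by time-resolved FRET cAMP detection, converted via cAMP standard curve (10 μM–0.13 nM), and EC50 values calculated.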

human CB1 receptors = human CB1 receptors (Homo sapiens (Human), UniProt P21554); experiment: functional cAMP assay, CHO cells expressing human CB1; type: cell-based; conditions: functional cAMP assay, CHO cells expressing human CB1
human CB1 receptors, sequence (P21554 whole entry): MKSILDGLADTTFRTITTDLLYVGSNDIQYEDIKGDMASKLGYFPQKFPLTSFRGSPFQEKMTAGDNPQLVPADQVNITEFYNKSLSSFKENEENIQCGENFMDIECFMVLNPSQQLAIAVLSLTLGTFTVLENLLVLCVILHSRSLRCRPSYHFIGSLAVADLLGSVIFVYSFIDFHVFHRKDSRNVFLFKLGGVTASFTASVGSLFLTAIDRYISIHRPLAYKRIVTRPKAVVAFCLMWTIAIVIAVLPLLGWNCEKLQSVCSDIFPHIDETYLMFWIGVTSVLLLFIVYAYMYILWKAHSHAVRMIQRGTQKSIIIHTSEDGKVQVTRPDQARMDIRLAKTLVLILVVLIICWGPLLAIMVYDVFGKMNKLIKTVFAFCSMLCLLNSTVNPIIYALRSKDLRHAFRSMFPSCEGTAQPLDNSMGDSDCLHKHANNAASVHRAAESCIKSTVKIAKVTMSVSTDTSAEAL
Procedure, shortened: as §1

human CB2 receptors, sequence (P34972 whole entry): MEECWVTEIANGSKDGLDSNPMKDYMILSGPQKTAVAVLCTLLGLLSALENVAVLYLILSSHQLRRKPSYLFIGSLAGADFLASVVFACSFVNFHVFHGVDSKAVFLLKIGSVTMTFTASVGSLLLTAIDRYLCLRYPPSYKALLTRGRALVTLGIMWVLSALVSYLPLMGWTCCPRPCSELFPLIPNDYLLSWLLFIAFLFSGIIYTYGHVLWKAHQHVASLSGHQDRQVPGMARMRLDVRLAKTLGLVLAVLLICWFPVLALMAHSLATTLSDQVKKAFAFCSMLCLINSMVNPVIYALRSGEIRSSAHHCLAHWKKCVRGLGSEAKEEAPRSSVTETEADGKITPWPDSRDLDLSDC

Compound | EC50 (human CB2 receptors; read-out: Human CB2 EC50) [µM] | EC50 (human CB1 receptors; read-out: Human CB1 EC50) [µM] | EC50 (human CB2 receptors; Human CB2 EC50 (uM)) [µM] | EC50 (human CB1 receptors; Human CB1 EC50 (uM)) [µM]
CC(CS(C)(=O)=O)(NC(=O)c1cc(OCC(F)(F)F)c(C2CC2)cn1)C(N)=O (stereo not drawn) [Example 134, N-(1-amino-2-methyl-3-methylsulfonyl-1-oxopropan-2-yl)-5-cyclopropyl-4-(2,2,2-trifluoroethoxy)pyridine-2-carboxamide] | 0.888 | > 10 |  | 
Cc1nc(C(C)(CS(C)(=O)=O)NC(=O)c2cc(O[C@@H](C)C(F)(F)F)c(C3(F)CCC3)cn2)no1 (stereo partly drawn) [Example 137, 5-(1-fluorocyclobutyl)-N-[2-(5-methyl-1,2,4-oxadiazol-3-yl)-1-methylsulfonylpropan-2-yl]-4-[(2S)-1,1,1-trifluoropropan-2-yl]oxypyridine-2-carboxamide] | 0.0105 | > 10 |  | 
Cc1nc(C(C)(CS(C)(=O)=O)NC(=O)c2cc(O[C@@H](C)C(F)(F)F)c(C3(F)CCC3)cn2)no1 (stereo partly drawn) [Example 138, 5-(1-fluorocyclobutyl)-N-[2-(5-methyl-1,2,4-oxadiazol-3-yl)-1-methylsulfonylpropan-2-yl]-4-[(2S)-1,1,1-trifluoropropan-2-yl]oxypyridine-2-carboxamide] | 0.0217 | > 10 |  | 
Cc1nc(C(C)(NC(=O)c2cc(OCC(F)(F)F)c(C3(F)COC3)cn2)C2CC2)no1 (stereo not drawn) [Example 139, N-[1-cyclopropyl-1-(5-methyl-1,2,4-oxadiazol-3-yl)ethyl]-5-(3-fluorooxetan-3-yl)-4-(2,2,2-trifluoroethoxy)pyridine-2-carboxamide] | 0.0006 | > 10 |  | 
Cc1nc(C(C)(CC2CC2)NC(=O)c2cc(O[C@@H](C)C(F)(F)F)c(C3(F)COC3)cn2)no1 (stereo partly drawn) [Example 142, N-[1-cyclopropyl-2-(5-methyl-1,2,4-oxadiazol-3-yl)propan-2-yl]-5-(3-fluorooxetan-3-yl)-4-[(2S)-1,1,1-trifluoropropan-2-yl]oxypyridine-2-carboxamide] | 0.0041 | > 10 |  | 
C[C@H](Oc1cc(C(=O)NC(C)(C#N)CC2CC2)ncc1C1(F)COC1)C(F)(F)F (stereo partly drawn) [Example 143, N-(2-cyano-1-cyclopropylpropan-2-yl)-5-(3-fluorooxetan-3-yl)-4-[(2S)-1,1,1-trifluoropropan-2-yl]oxypyridine-2-carboxamide] | 0.246 | > 10 |  | 
Cc1nc(C(C)(NC(=O)c2cc(O[C@@H](C)C(F)(F)F)c(C3(F)COC3)cn2)C2CC2)no1 (stereo partly drawn) [Example 144, N-[1-cyclopropyl-1-(5-methyl-1,2,4-oxadiazol-3-yl)ethyl]-5-(3-fluorooxetan-3-yl)-4-[(2S)-1,1,1-trifluoropropan-2-yl]oxypyridine-2-carboxamide] | 0.0141 | > 10 |  | 
Cc1nc(C(C)(CC2CC2)NC(=O)c2cc(OCC(F)F)c(C3CC3)cn2)no1 (stereo not drawn) [Example 145, 5-cyclopropyl-N-[1-cyclopropyl-2-(5-methyl-1,2,4-oxadiazol-3-yl)propan-2-yl]-4-(2,2-difluoroethoxy)pyridine-2-carboxamide] | 0.0034 | > 10 |  | 
Cc1nc(C(C)(CC2CC2)NC(=O)c2cc(OCCF)c(C3CC3)cn2)no1 (stereo not drawn) [Example 146, 5-cyclopropyl-N-[1-cyclopropyl-2-(5-methyl-1,2,4-oxadiazol-3-yl)propan-2-yl]-4-(2-fluoroethoxy)pyridine-2-carboxamide] | 0.0018 | > 10 |  | 
Cc1nc(C(C)(NC(=O)c2cc(OCC(F)(F)F)c(C3CC3)cn2)C(=O)N2CC(F)(F)C2)no1 (stereo not drawn) [Example 147, 5-cyclopropyl-N-[1-(3,3-difluoroazetidin-1-yl)-2-(5-methyl-1,2,4-oxadiazol-3-yl)-1-oxopropan-2-yl]-4-(2,2,2-trifluoroethoxy)pyridine-2-carboxamide] | 0.0454 | > 10 |  | 
Cc1nc(C(C)(NC(=O)c2cc(OCC(F)(F)F)c(C3CC3)cn2)C(=O)N2CC3(COC3)C2)no1 (stereo not drawn) [Example 148, 5-cyclopropyl-N-[2-(5-methyl-1,2,4-oxadiazol-3-yl)-1-(2-oxa-6-azaspiro[3.3]heptan-6-yl)-1-oxopropan-2-yl]-4-(2,2,2-trifluoroethoxy)pyridine-2-carboxamide] | 0.205 | > 10 |  | 
CNC(=O)C(C)(NC(=O)c1cc(OCC(F)(F)F)c(C2CC2)cn1)c1noc(C)n1 (stereo not drawn) [Example 149, 5-cyclopropyl-N-[1-(methylamino)-2-(5-methyl-1,2,4-oxadiazol-3-yl)-1-oxopropan-2-yl]-4-(2,2,2-trifluoroethoxy)pyridine-2-carboxamide] | 0.0127 | > 10 |  | 
Cn1nnc(C(C)(CC2CC2)NC(=O)c2cc(OCC(F)(F)F)c(C3CC3)cn2)n1 (stereo not drawn) [Example 150, 5-cyclopropyl-N-[1-cyclopropyl-2-(2-methyltetrazol-5-yl)propan-2-yl]-4-(2,2,2-trifluoroethoxy)pyridine-2-carboxamide] | 0.109 | > 10 |  | 
Cn1nnnc1C(C)(CC1CC1)NC(=O)c1cc(OCC(F)(F)F)c(C2CC2)cn1 (stereo not drawn) [Example 151, 5-cyclopropyl-N-[1-cyclopropyl-2-(1-methyltetrazol-5-yl)propan-2-yl]-4-(2,2,2-trifluoroethoxy)pyridine-2-carboxamide] | 0.0198 | > 10 |  | 
Cc1csc(C2(NC(=O)c3cc(OCC(F)(F)F)c(C4CC4)cn3)CCOCC2)n1 [Example 152, 5-cyclopropyl-N-[4-(4-methyl-1,3-thiazol-2-yl)oxan-4-yl]-4-(2,2,2-trifluoroethoxy)pyridine-2-carboxamide] | 0.185 | > 10 |  | 
Cc1cnc(C2(NC(=O)c3cc(OCC(F)(F)F)c(C4CC4)cn3)CCOCC2)s1 [Example 153, 5-cyclopropyl-N-[4-(5-methyl-1,3-thiazol-2-yl)oxan-4-yl]-4-(2,2,2-trifluoroethoxy)pyridine-2-carboxamide] |  |  | 0.0407 | > 10
Cc1csc(C(C)(CC2CC2)NC(=O)c2cc(OCC(F)(F)F)c(C3CC3)cn2)n1 (stereo not drawn) [Example 158, 5-cyclopropyl-N-[1-cyclopropyl-2-(4-methyl-1,3-thiazol-2-yl)propan-2-yl]-4-(2,2,2-trifluoroethoxy)pyridine-2-carboxamide] | 0.0958 | > 10 |  | 
CC(CC1CC1)(NC(=O)c1cc(OCC(F)(F)F)c(C2CC2)cn1)c1nnn[nH]1 (stereo not drawn) [Example 159, 5-cyclopropyl-N-[1-cyclopropyl-2-(1H-tetrazol-5-yl)propan-2-yl]-4-(2,2,2-trifluoroethoxy)pyridine-2-carboxamide] | 0.935 | > 10 |  | 
NC(=O)CC1(NC(=O)c2cc(OCC(F)(F)F)c(C3CC3)cn2)CS(=O)(=O)C1 [Example 160, N-[3-(2-amino-2-oxoethyl)-1,1-dioxothietan-3-yl]-5-cyclopropyl-4-(2,2,2-trifluoroethoxy)pyridine-2-carboxamide] | 0.0118 | > 10 |  | 
Cc1nc(C(NC(=O)c2cc(OCC(F)(F)F)c(C3CC3)cn2)C(C)(C)C)no1 (stereo not drawn) [Example 161, 5-cyclopropyl-N-[2,2-dimethyl-1-(5-methyl-1,2,4-oxadiazol-3-yl)propyl]-4-(2,2,2-trifluoroethoxy)pyridine-2-carboxamide] | 0.0088 | > 10 |  | 
CC(C)(C)C(NC(=O)c1cc(OCC(F)(F)F)c(C2CC2)cn1)c1nn[nH]n1 (stereo not drawn) [Example 162, 5-cyclopropyl-N-[2,2-dimethyl-1-(1H-tetrazol-5-yl)propyl]-4-(2,2,2-trifluoroethoxy)pyridine-2-carboxamide] | 0.0717 | > 10 |  | 
Cn1nnc(C(NC(=O)c2cc(OCC(F)(F)F)c(C3CC3)cn2)C(C)(C)C)n1 (stereo not drawn) [Example 163, 5-cyclopropyl-N-[2,2-dimethyl-1-(2-methyltetrazol-5-yl)propyl]-4-(2,2,2-trifluoroethoxy)pyridine-2-carboxamide] | 0.0045 | > 10 |  | 
CC(CC1CC1)(NC(=O)c1cc(OCC(F)(F)F)c(C2CC2)cn1)c1noc(N)n1 (stereo not drawn) [Example 165, N-[2-(5-amino-1,2,4-oxadiazol-3-yl)-1-cyclopropylpropan-2-yl]-5-cyclopropyl-4-(2,2,2-trifluoroethoxy)pyridine-2-carboxamide] | 0.022 | > 10 |  | 
Cc1nc([C@@](C)(NC(=O)c2cc(O[C@@H](C)C(F)(F)F)c(C3(F)COC3)cn2)C2CC2)no1 [Example 168, N-[1-cyclopropyl-1-(5-methyl-1,2,4-oxadiazol-3-yl)ethyl]-5-(3-fluorooxetan-3-yl)-4-[(2S)-1,1,1-trifluoropropan-2-yl]oxypyridine-2-carboxamide] | 0.281 | > 10 |  | 
Cc1nc(C(C)(NC(=O)c2cc(O[C@@H](C)C(F)(F)F)c(C3(F)COC3)cn2)C2CC2)no1 (stereo partly drawn) [Example 169, N-[1-cyclopropyl-1-(5-methyl-1,2,4-oxadiazol-3-yl)ethyl]-5-(3-fluorooxetan-3-yl)-4-[(2S)-1,1,1-trifluoropropan-2-yl]oxypyridine-2-carboxamide] | 0.0055 | > 10 |  | 
Cc1nc(C(C)(CC2CC2)NC(=O)c2cc(O[C@@H](C)C(F)(F)F)c(C3(F)COC3)cn2)no1 (stereo partly drawn) [Example 170, N-[1-cyclopropyl-2-(5-methyl-1,2,4-oxadiazol-3-yl)propan-2-yl]-5-(3-fluorooxetan-3-yl)-4-[(2S)-1,1,1-trifluoropropan-2-yl]oxypyridine-2-carboxamide] | 0.0254 | > 10 |  | 
Cc1nc(C(C)(CC2CC2)NC(=O)c2cc(O[C@@H](C)C(F)(F)F)c(C3(F)COC3)cn2)no1 (stereo partly drawn) [Example 171, N-[1-cyclopropyl-2-(5-methyl-1,2,4-oxadiazol-3-yl)propan-2-yl]-5-(3-fluorooxetan-3-yl)-4-[(2S)-1,1,1-trifluoropropan-2-yl]oxypyridine-2-carboxamide] | 0.0149 | > 10 |  | 
